Laboratory results from US20090247576A1, “ANTI-TUMOR AGENT FOR MULTIPLE MYELOMA” (Eisai R & D Management Co., Ltd., priority 2005, published 2009).

Molecular target: T1, FGFR3 kinase (human recombinant GST fusion protein) (Homo sapiens, UniProt P22607)
T1 construct: GST; host or cells: Sf9 insect cells, baculovirus
Test: FGFR3 cell free kinase assay (33P-ATP incorporation, FlashPlate, ProQinase)
Type: biochemical
Conditions: test substance: methanesulfonate; 1 μM [γ-33P]-ATP; substrate biotinylated Poly(Glu, Tyr)4:1; 30° C., 80 minutes; 10 points from 10 μM to 0.0003 μM; read-out: FGFR3 kinase-inhibiting activity (IC50)
Experimental: A FGFR3-inhibiting activity of 4-(3-chloro-4-(cyclopropylaminocarbonyl)aminophenoxy)-7-methoxy-6-quinolinecarbox amide was examined by ProQinase (Freiburg, GmbH) on our request. Specifically, the FGFR3-inhibiting activity was determined as follows. FGFR3 kinase was expressed in an insect cell (Spondoptea frugiperda 9 (Sf9)) as human recombinant GST fusion protein by the method of Baculovirus Expression System. The expressed recombinant protein was purified by affinity chromatography using GSH-agarose (from Sigma) or Ni-NTH-agarose (from Qiagen). The purity and identification of the protein were confirmed by SDS-PAGE, silver staining and western blotting using an antibody specific to FGFR3 kinase. Kinase assay was carried out as follows. […] The amount of ^33Pi incorporation was assessed by determining the radioactivity on the plate with a microplate scintillation counter (from Microbeta, Wallac). […] The kinase activity in the presence of the test substance at each concentration was assessed as percentage of the value obtained by subtracting the 0% value from the radioactivity value to the value obtained by subtracting the 0% value from the 100% value.

T1 sequence (P22607 23-806): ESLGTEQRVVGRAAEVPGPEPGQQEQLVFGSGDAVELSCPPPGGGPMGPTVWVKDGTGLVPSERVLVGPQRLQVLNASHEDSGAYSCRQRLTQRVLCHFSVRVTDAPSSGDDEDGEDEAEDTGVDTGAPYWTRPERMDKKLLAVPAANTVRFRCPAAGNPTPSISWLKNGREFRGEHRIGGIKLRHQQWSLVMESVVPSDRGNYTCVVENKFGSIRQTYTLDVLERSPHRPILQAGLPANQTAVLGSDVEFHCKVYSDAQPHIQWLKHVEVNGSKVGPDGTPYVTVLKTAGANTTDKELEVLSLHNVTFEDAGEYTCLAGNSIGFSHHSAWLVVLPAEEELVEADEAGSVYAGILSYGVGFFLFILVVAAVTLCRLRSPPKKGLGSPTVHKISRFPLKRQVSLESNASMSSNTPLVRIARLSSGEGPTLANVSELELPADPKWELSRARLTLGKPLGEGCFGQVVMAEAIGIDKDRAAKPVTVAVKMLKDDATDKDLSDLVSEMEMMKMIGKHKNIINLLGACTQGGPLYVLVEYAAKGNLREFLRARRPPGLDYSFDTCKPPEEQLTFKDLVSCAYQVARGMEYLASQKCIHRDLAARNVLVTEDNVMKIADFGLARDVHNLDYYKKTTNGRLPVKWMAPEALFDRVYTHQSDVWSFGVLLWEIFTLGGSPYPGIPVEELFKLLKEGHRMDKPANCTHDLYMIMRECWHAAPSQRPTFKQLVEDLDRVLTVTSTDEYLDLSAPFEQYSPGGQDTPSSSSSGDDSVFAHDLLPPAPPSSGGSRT

IC50: 140 nM
SMILES: COc1cc2nccc(Oc3ccc(NC(=O)NC4CC4)c(Cl)c3)c2cc1C(N)=O [4-(3-chloro-4-(cyclopropylaminocarbonyl)aminophenoxy)-7-methoxy-6-quinolinecarbox amide]
